Consider 36 molecules from patent publication US11285156B2, “Substituted piperazines as KRAS G12C inhibitors” (Amgen Inc., priority 2018, dated 2022).

Molecules are shown by their SMILES.

The target in one test is GDP-bound KRAS protein (aa 1-169), containing both G12C and C118A amino acid substitutions (Homo sapiens (Human), UniProt P01116, C118A/G12C). In words: Coupled nucleotide exchange assay (SOS-mediated nucleotide exchange, AlphaScreen). Conditions: 5 min compound pre-incubation. Type of test: biochemical.
GDP-bound KRAS protein (aa 1-169), containing both G12C and C118A amino acid substitutions, sequence (P01116 other isoform, or with tags, fused parts or gaps G12C/C118A): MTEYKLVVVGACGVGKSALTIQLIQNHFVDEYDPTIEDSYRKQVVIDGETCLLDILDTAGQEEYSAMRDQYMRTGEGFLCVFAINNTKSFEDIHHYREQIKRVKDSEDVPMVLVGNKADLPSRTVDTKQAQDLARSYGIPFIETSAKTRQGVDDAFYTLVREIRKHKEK
With `C=CC(=O)N1C[C@H](C)N(c2nc(=O)n(-c3c(C)cc(C4CC4)nc3C(C)C)c3nc(-c4ccccc4F)c(Cl)cc23)C[C@H]1C` (single isomer, unassigned) [Example 164-1], the “Coupled exchange IC50 (5 min; μM)” value was 0.066 µM. On to `C=CC(=O)N1C[C@H](C)N(c2nc(=O)n(-c3c(C)cc(C4CC4)nc3C(C)C)c3nc(-c4ccccc4F)c(Cl)cc23)C[C@H]1C` (single isomer, unassigned) [Example 164-2], for which the “Coupled exchange IC50 (5 min; μM)” value came out at 3.44 µM. For the molecule `C=CC(=O)N1C[C@H](C)N(c2nc(=O)n(-c3c(C)cc(CC)nc3C(C)C)c3nc(-c4ccccc4F)c(Cl)cc23)C[C@H]1C` (single isomer, unassigned) [Example 166-2], the “Coupled exchange IC50 (5 min; μM)” value was 1.032 µM. Same read-out and setting: under `C=CC(=O)N1C[C@H](C)N(c2nc(=O)n(-c3c(C(C)C)cc(N4CCC4)nc3C(C)C)c3nc(-c4ccccc4F)c(Cl)cc23)C[C@H]1C` (single isomer, unassigned) [Example 182-1] stands 0.14 µM. For the molecule `C=CC(=O)N1C[C@H](C)N(c2nc(=O)n(-c3c(C(C)C)cc(N4CCC4)nc3C(C)C)c3nc(-c4ccccc4F)c(Cl)cc23)C[C@H]1C` (single isomer, unassigned) [Example 182-2], the “Coupled exchange IC50 (5 min; μM)” value was found to be 0.187 µM. Consider `C=CC(=O)N1CCN(c2nc(=O)n(-c3c(C)cc(N)nc3C(C)C)c3nc(-c4ccccc4F)c(Cl)cc23)[C@@H](C)C1` (single isomer, unassigned) [Example 183-1], for which the “Coupled exchange IC50 (5 min; μM)” value came to 0.61 µM. `C=CC(=O)N1C[C@H](C)N(c2nc(=O)n(-c3c(N)ncnc3C(C)C)c3nc(-c4ccccc4F)c(Cl)cc23)C[C@H]1C` (single isomer, unassigned) [Example 189-2]: the “Coupled exchange IC50 (5 min; μM)” value was found to be 14.7 µM. Turning to `C=CC(=O)N1C[C@H](C)N(c2nc(=O)n(-c3c(C)nc(Cl)nc3C(C)C)c3nc(-c4ccccc4F)c(Cl)cc23)C[C@H]1C` (single isomer, unassigned) [Example 191-1], the “Coupled exchange IC50 (5 min; μM)” value came out at 2.99 µM.

Consider `C=CC(=O)N1C[C@H](C)N(c2nc(=O)n(-c3c(C)ncnc3C(C)C)c3nc(-c4ccccc4F)c(Cl)cc23)C[C@H]1C` (single isomer, unassigned) [Example 194-2], for which the “Coupled exchange IC50 (5 min; μM)” value was 1.45 µM. As for `C=CC(=O)N1C[C@H](C)N(c2nc(=O)n(-c3c(C)nc(Br)nc3C(C)C)c3nc(-c4ccccc4F)c(Cl)cc23)C[C@H]1C` (single isomer, unassigned) [Example 197-1], the “Coupled exchange IC50 (5 min; μM)” value stood at 1.59 µM. The same measure, in the same setting: under `C=CC(=O)N1C[C@H](C)N(c2nc(=O)n(-c3c(C(C)C)cccc3[S+](C)[O-])c3nc(-c4ccccc4F)c(Cl)cc23)C[C@H]1C` (single isomer, unassigned) [Example 209-2] stands 1.34 µM; under `C=CC(=O)N1C[C@H](C)N(c2nc(=O)n(-c3c(C)cc([S+](C)[O-])cc3C(C)C)c3nc(-c4ccccc4C)c(Cl)cc23)C[C@H]1C` (single isomer, unassigned) [Example 213-1], 1.5 µM. On the same count and under the same terms, for `C=CC(=O)N1C[C@H](C)N(c2nc(=O)n(-c3c(C)cc([S+](C)[O-])cc3C(C)C)c3nc(-c4ccccc4C)c(Cl)cc23)C[C@H]1C` (single isomer, unassigned) [Example 213-4] the value was 1.51 µM; for `C=CC(=O)N1C[C@H](C)N(c2nc(=O)n(-c3c(C)cc(S(C)(=O)=O)cc3C(C)C)c3nc(-c4ccccc4F)c(Cl)cc23)C[C@H]1C` (single isomer, unassigned) [Example 215-1], 3.79 µM. On to `C=CC(=O)N1C[C@H](C)N(c2nc(=O)n(C3CCCCC3)c3nc(-c4ccccc4F)c(Cl)cc23)C[C@H]1C` [110-2, 6-Chloro-1-cyclohexyl-4-[(2S,5R)-2,5-dimethyl-4-prop-2-enoyl-piperazin-1-yl]-7-(2-fluorophenyl)pyrido [2,3-d]pyrimidin-2-one], for which the “Coupled exchange IC50 (5 min; μM)” value was 13.4 µM.

Still in this test, the particulars now being: read-out: Coupled exchange IC50 (5 min; μM); 5 min compound pre-incubation.
Turning to `C=CC(=O)N1C[C@H](C)N(c2nc(=O)n(-c3c(N(C)C)ccnc3C(C)C)c3nc(-c4c(F)cccc4NC(=O)C4CC4)c(Cl)cc23)C[C@H]1C` (single isomer, unassigned) [Example 122-3-1], the IC50 (commonly the point on the concentration scale where inhibition reaches its midpoint) was 6.82 µM. `C=CC(=O)N1[C@H](C)CN(c2nc(=O)n(-c3c(C)cc(N)nc3C(C)C)c3nc(-c4c(O)cccc4F)c(F)cc23)C[C@@H]1C` (single isomer, unassigned) [Example 123-1]: the IC50 was determined as 1.25 µM. Consider `C=CC(=O)N1[C@H](C)CN(c2nc(=O)n(-c3c(C)cc(N)nc3C(C)C)c3nc(-c4ccccc4F)c(F)cc23)C[C@@H]1C` (single isomer, unassigned) [Example 123-3], for which the IC50 turned out to be 14 µM. `C=CC(=O)N1[C@H](C)CN(c2nc(=O)n(-c3c(C)cc(N)nc3C(C)C)c3nc(-c4ccccc4F)c(F)cc23)C[C@@H]1C` (single isomer, unassigned) [Example 123-4]: the IC50 worked out at 1 µM. Same read-out and setting: under `C=CC(=O)N1CCN(c2nc(=O)n(-c3c(C)ccnc3C(C)C)c3nc(-c4c(O)cccc4F)c(F)cc23)C(C)C1C` (single isomer, unassigned) [Example 124-14-1, 4-[cis-2,3-dimethyl-4-prop-2-enoyl-piperazin-1-yl]-6-fluoro-7-(2-fluoro-6-hydroxy-phenyl)-1-(2-isopropyl-4-methyl-3-pyridyl)pyrido[2,3-d]pyrimidin-2-one] stands 22.2 µM; under `C=CC(=O)N1CCN(c2nc(=O)n(-c3c(C)ccnc3C(C)C)c3nc(-c4c(O)cccc4F)c(F)cc23)C(C)C1C` (single isomer, unassigned) [Example 124-14-2, 4-[cis-2,3-dimethyl-4-prop-2-enoyl-piperazin-1-yl]-6-fluoro-7-(2-fluoro-6-hydroxy-phenyl)-1-(2-isopropyl-4-methyl-3-pyridyl)pyrido[2,3-d]pyrimidin-2-one], 59.5 µM. In the case of `C=CC(=O)N1CCN(c2nc(=O)n(-c3c(C)ccnc3C(C)C)c3nc(-c4c(O)cccc4F)c(F)cc23)C(C)C1C` (single isomer, unassigned) [Example 124-16-1, 4-[trans-2,3-dimethyl-4-prop-2-enoyl-piperazin-1-yl]-6-fluoro-7-(2-fluoro-6-hydroxy-phenyl)-1-(2-isopropyl-4-methyl-3-pyridyl)pyrido[2,3-d]pyrimidin-2-one], the IC50 turned out to be 1.12 µM. As for `C=CC(=O)N1CCN(c2nc(=O)n(-c3c(C)ccnc3C(C)C)c3nc(-c4c(O)cccc4F)c(F)cc23)C(C)C1C` (single isomer, unassigned) [Example 124-16-2, 4-[trans-2,3-dimethyl-4-prop-2-enoyl-piperazin-1-yl]-6-fluoro-7-(2-fluoro-6-hydroxy-phenyl)-1-(2-isopropyl-4-methyl-3-pyridyl)pyrido[2,3-d]pyrimidin-2-one], the IC50 turned out to be 7.37 µM. As for `C=CC(=O)N1C[C@H](C)N(c2nc(=O)n(-c3c(C(C)C)ccnc3C(C)C)c3nc(-c4ccccc4C)c(F)cc23)C[C@H]1C` (single isomer, unassigned) [Example 125-5], the IC50 came out at 0.46 µM. `C=CC(=O)N1C[C@H](C)N(c2nc(=O)n3c4nc(c(Cl)cc24)-c2ccccc2C/C=C/Cc2cccc(C(C)C)c2-3)C[C@H]1C` (single isomer, unassigned) [Example 146-1-1]: the IC50 was found to be 9.43 µM. Regarding `C=CC(=O)N1C[C@H](C)N(c2nc(=O)n3c4nc(c(Cl)cc24)-c2ccccc2C/C=C\Cc2cccc(C(C)C)c2-3)C[C@H]1C` (single isomer, unassigned) [Example 146-1-2], the IC50 turned out to be 53.8 µM. Consider `C=CC(=O)N1C[C@H](C)N(c2nc(=O)n3c4nc(c(Cl)cc24)-c2ccccc2C/C=C/Cc2ccccc2-3)C[C@H]1C` (single isomer, unassigned) [Example 146-3-1], for which the IC50 is 204 µM.

As to `C=CC(=O)N1C[C@H](C)N(c2nc(=O)n3c4nc(c(Cl)cc24)-c2ccccc2C/C=C\Cc2ccccc2-3)C[C@H]1C` (single isomer, unassigned) [Example 146-3-3], the half-maximal inhibitory concentration (IC50) worked out at 57.3 µM. Regarding `C=CC(=O)N1C[C@H](C)N(c2nc(=O)n(-c3c(C(C)C)cccc3S(C)(=O)=O)c3nc(-c4ccccc4F)c(Cl)cc23)C[C@H]1C` (single isomer, unassigned) [Example 208-1], the IC50 was 2.56 µM. The same measure, in the same setting: under `C=CC(=O)N1[C@H](C)CN(c2nc(=O)n(-c3c(C)ccnc3C(C)C)c3nc(-c4ccccc4F)c(Cl)nc23)C[C@@H]1C` (single isomer, unassigned) [Example 224-1] stands 23.3 µM; under `C=CC(=O)N1[C@H](C)CN(c2nc(=O)n(-c3c(C)ccnc3C(C)C)c3nc(-c4ccccc4F)c(Cl)nc23)C[C@@H]1C` (single isomer, unassigned) [Example 224-2], 1.29 µM.

For `C=CC(=O)N1C[C@H](C)N(c2nc(=O)n(-c3c(C)ccnc3C(C)C)c3nc(-c4ccccc4F)c(C)nc23)C[C@H]1C` (single isomer, unassigned) [Example 225-1], the IC50 stood at 7.62 µM. For the molecule `C=CC(=O)N1C[C@H](C)N(c2nc(=O)n(-c3c(C)ccnc3C(C)C)c3nc(-c4ccccc4F)c(C)nc23)C[C@H]1C` (single isomer, unassigned) [Example 225-2], the IC50 was found to be 0.501 µM. Take `C=CC(=O)N1C[C@H](C)N(c2nc(=O)n(-c3c(C)ccnc3C(C)C)c3nc(-c4ccccc4F)c(C)nc23)C[C@H]1C` (single isomer, unassigned) [Example 225]: the IC50 was 4.43 µM. Consider `C=CC(=O)N1C[C@H](C)N(c2nc(=O)n(-c3c(C)ccnc3C(C)C)c3nc(-c4ncccc4OC)c(Cl)cc23)C[C@H]1C` [96-2], for which the IC50 was found to be 1.22 µM. Consider `C=CC(=O)N1C[C@H](C)N(c2nc(=O)n(-c3c(N(C)C)ccnc3C(C)C)c3nc(-c4ccccc4S(C)(=O)=O)c(Cl)cc23)C[C@H]1C` [Example 55-53, 6-Chloro-1-[4-(dimethylamino)-2-isopropyl-3-pyridyl]-4-[(2S,5R)-2,5-dimethyl-4-prop-2-enoyl-piperazin-1-yl]-7-(2-methylsulfonylphenyl)pyrido[2,3-d]pyrimidin-2-one], for which the IC50 was determined as 0.356 µM.
